US11046680B1, “Heteroaryl-substituted triazoles as APJ receptor agonists” (priority 2016, dated 2021)

Target: human APJ receptor (Homo sapiens (Human), UniProt P35414)
Assay: biochemical
Assay type: biochemical
Conditions: [35S]GTPγS binding, CHO membranes expressing human APJ receptor; read-out: Activity hAPJ SPA EC50 IP
Procedure: The human APJ receptor was cloned by polymerase chain reaction and the gene encoding the receptor was subcloned in pFLAG-CMV™-3 expression vector (Sigma, Saint Louis, Mo. USA) in-house at Amgen. A GTPγS binding assay was performed on membranes prepared from CHO cells stably expressing human APJ receptor. The optimum experimental conditions for the concentrations of GDP, MgCl2, and NaCl in the assay buffer were initially determined. […] Incubation was at RT for 90 min and the microplate was read using a ViewLux™ ultra HTS Microplate Imager (PerkinElmer, Inc.).

Chain of human APJ receptor (P35414 whole entry): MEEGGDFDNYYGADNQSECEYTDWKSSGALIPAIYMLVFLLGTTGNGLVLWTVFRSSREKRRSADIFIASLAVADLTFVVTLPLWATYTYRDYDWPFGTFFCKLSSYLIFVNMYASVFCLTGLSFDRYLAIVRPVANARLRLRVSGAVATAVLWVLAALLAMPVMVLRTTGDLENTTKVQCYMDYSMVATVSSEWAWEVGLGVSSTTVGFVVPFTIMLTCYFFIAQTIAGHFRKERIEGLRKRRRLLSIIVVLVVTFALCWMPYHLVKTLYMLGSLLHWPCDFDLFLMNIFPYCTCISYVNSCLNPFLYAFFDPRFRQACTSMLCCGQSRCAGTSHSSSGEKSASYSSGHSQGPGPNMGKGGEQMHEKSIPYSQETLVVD

Molecule | EC50
COc1cccc(OC)c1-n1c(NS(=O)(=O)[C@@H]2CCCN(c3ncc(F)cn3)C2)nnc1-c1ccn(C)n1 (single isomer, unassigned) [Example 261.0, (3R)-N-(4-(2,6-dimethoxyphenyl)-5-(1-methyl-1H-pyrazol-3-yl)-4H-1,2,4-triazol-3-yl)-1-(5-fluoro-2-pyrimidinyl)-3-piperidinesulfonamide or (3S)-N-(4-(2,6-dimethoxyphenyl)-5-(1-methyl-1H-pyrazol-3-yl)-4H-1,2,4-triazol-3-yl)-1-(5-fluoro-2-pyrimidinyl)-3-piperidinesulfonamide] | 190 nM
COc1cccc(OC)c1-n1c(NS(=O)(=O)[C@@H](C)[C@H](C)c2ncc(F)cn2)nnc1-c1ccn(C(F)F)n1 [Example 194.0, (2S,3R)-N-(5-(1-(difluoromethyl)-1H-pyrazol-3-yl)-4-(2,6-dimethoxyphenyl)-4H-1,2,4-triazol-3-yl)-3-(5-fluoro-2-pyrimidinyl)-2-butanesulfonamide] | 0.48 nM
O=S(=O)(CCc1ccc(Cl)cc1)Nc1nnc(-c2cccs2)n1-c1ccccc1OC(F)F [Example 240.0, 2-(4-chlorophenyl)-N-(4-(2-(difluoromethoxy)phenyl)-5-(thiophen-2-yl)-4H-1,2,4-triazol-3-yl)ethanesulfonamide] | 1310 nM
COc1cccc(OC)c1-n1c(NS(=O)(=O)[C@@H](C)[C@H](OC)c2ncc(F)cn2)nnc1-c1cc(C)[nH]n1 [Example 345.0, (1R,2S)-N-(4-(2,6-dimethoxyphenyl)-5-(5-methyl-1H-pyrazol-3-yl)-4H-1,2,4-triazol-3-yl)-1-(5-fluoro-2-pyrimidinyl)-1-methoxy-2-propanesulfonamide] | 8.1 nM
COc1cccc(OC)c1-n1c(NS(=O)(=O)[C@@H]2C[C@@H](O)CN(c3ncc(F)cn3)C2)nnc1-c1nc(C)cs1 (single isomer, unassigned) [Example 257.0, (3R,5R)-N-(4-(2,6-dimethoxyphenyl)-5-(4-methyl-1,3-thiazol-2-yl)-4H-1,2,4-triazol-3-yl)-1-(5-fluoro-2-pyrimidinyl)-5-hydroxy-3-piperidinesulfonamide or (3S,5S)-N-(4-(2,6-dimethoxyphenyl)-5-(4-methyl-1,3-thiazol-2-yl)-4H-1,2,4-triazol-3-yl)-1-(5-fluoro-2-pyrimidinyl)-5-hydroxy-3-piperidinesulfonamide] | 3.9 nM
C=CCO[C@@H](c1ncc(F)cn1)[C@@H](C)S(=O)(=O)Nc1nnc(-c2nc(C)cs2)n1-c1c(OC)cccc1OC (single isomer, unassigned) [Example 168.0, (1S,2R)-1-(Allyloxy)-N-(4-(2,6-dimethoxyphenyl)-5-(4-methylthiazol-2-yl)-4H-1,2,4-triazol-3-yl)-1-(5-fluoropyrimidin-2-yl)propane-2-sulfonamide or (1R,2S)-1-(allyloxy)-N-(4-(2,6-dimethoxyphenyl)-5-(4-methylthiazol-2-yl)-4H-1,2,4-triazol-3-yl)-1-(5-fluoropyrimidin-2-yl)propane-2-sulfonamide] | 30 nM
COc1ccccc1-n1c(NS(=O)(=O)CCc2ccc(Cl)cc2)nnc1-c1cccs1 [Example 236.0, 2-(4-chlorophenyl)-N-(4-(2-methoxyphenyl)-5-(thiophen-2-yl)-4H-1,2,4-triazol-3-yl)ethanesulfonamide] | 120 nM
Cc1cnc([C@H](OC(C)C)[C@H](C)S(=O)(=O)Nc2nnc(-c3cnn4c3CCC4)n2-c2c(F)cccc2F)cn1 [Example 484.0, (1S,2S)-N-(4-(2,6-difluorophenyl)-5-(5,6-dihydro-4H-pyrrolo[1,2-b]pyrazol-3-yl)-4H-1,2,4-triazol-3-yl)-1-isopropoxy-1-(5-methylpyrazin-2-yl)propane-2-sulfonamide] | 9.2 nM
COc1ccc(C(=O)O)cc1-n1c(NS(=O)(=O)CCc2ccc(Cl)cc2)nnc1-c1cccs1 [Example 245.0, 3-(3-(2-(4-chlorophenyl)ethylsulfonamido)-5-(thiophen-2-yl)-4H-1,2,4-triazol-4-yl)-4-methoxybenzoic acid] | 210 nM
CCO[C@@H](c1ncc(Cl)cn1)[C@H](C)S(=O)(=O)Nc1nnc(-c2ccn(C)n2)n1-c1c(OC)cccc1OC (single isomer, unassigned) [Example 352.0, (1S,2S)-1-(5-chloropyrimidin-2-yl)-N-(4-(2,6-dimethoxyphenyl)-5-(1-methyl-1H-pyrazol-3-yl)-4H-1,2,4-triazol-3-yl)-1-ethoxypropane-2-sulfonamide or (1R,2R)-1-(5-chloropyrimidin-2-yl)-N-(4-(2,6-dimethoxyphenyl)-5-(1-methyl-1H-pyrazol-3-yl)-4H-1,2,4-triazol-3-yl)-1-ethoxypropane-2-sulfonamide] | 35 nM
COc1cccc(OC)c1-n1c(NS(=O)(=O)[C@H](C)Cc2ncc(F)cn2)nnc1-c1nc(C)cs1 (single isomer, unassigned) [Example 102.0, (R)-N-(4-(2,6-Dimethoxyphenyl)-5-(4-methylthiazol-2-yl)-4H-1,2,4-triazol-3-yl)-1-(5-fluoropyrimidin-2-yl)propane-2-sulfonamide or (S)-N-(4-(2,6-dimethoxyphenyl)-5-(4-methylthiazol-2-yl)-4H-1,2,4-triazol-3-yl)-1-(5-fluoropyrimidin-2-yl)propane-2-sulfonamide] | 4.1 nM
COc1cccc(OC)c1-n1c(NS(=O)(=O)CCc2ccc(F)cc2C#N)nnc1-c1nc(C)cs1 [Example 147.0, 2-(2-Cyano-4-fluorophenyl)-N-(4-(2,6-dimethoxyphenyl)-5-(4-methylthiazol-2-yl)-4H-1,2,4-triazol-3-yl)ethanesulfonamide] | 1.3 nM
COc1ccc(Br)cc1-n1c(NS(=O)(=O)CCc2ccc(Cl)cc2)nnc1-c1cccs1 [Example 133.0, N-(4-(5-Bromo-2-methoxyphenyl)-5-(thiophen-2-yl)-4H-1,2,4-triazol-3-yl)-2-(4-chlorophenyl)ethanesulfonamide] | 363 nM
COc1ncnc(OC)c1-n1c(NS(=O)(=O)[C@@H](C)[C@@H](OC(C)C)c2ncc(Cl)cn2)nnc1-c1ccn(C)n1 [Example 456.0, (1S,2S)-1-(5-chloro-2-pyrimidinyl)-N-(4-(4,6-dimethoxy-5-pyrimidinyl)-5-(1-methyl-1H-pyrazol-3-yl)-4H-1,2,4-triazol-3-yl)-1-(1-methylethoxy)-2-propanesulfonamide] | 0.6 nM
COc1cccc(OC)c1-n1c(NS(=O)(=O)[C@@H](C)[C@H](OC)c2ncc(C)cn2)nnc1-c1ncc(C)s1 [Example 331.0, (1R,2S)-N-(4-(2,6-Dimethoxyphenyl)-5-(5-methyl-1,3-thiazol-2-yl)-4H-1,2,4-triazol-3-yl)-1-methoxy-1-(5-methyl-2-pyrimidinyl)-2-propanesulfonamide] | 0.98 nM
(R)-N-(4-(2,6-dimethoxyphenyl)-5-(1-methyl-1H-pyrazol-4-yl)-4H-1,2,4-triazol-3-yl)-1-(5-fluoropyrimidin-2-yl)propane-2-sulfonamide and (R)-N-(4-(2,6-dimethoxyphenyl)-5-(1-methyl-1H-pyrazol-4-yl)-4H-1,2,4-triazol-3-yl)-1-(5-fluoropyrimidin-2-yl)propane-2-sulfonamide [Example 40.0] | 5.2 nM
COc1cccc(OC)c1-n1c(NS(=O)(=O)C[C@H](OC)c2ccc(Cl)cn2)nnc1-c1ccn(C)n1 (single isomer, unassigned) [Example 376.0, (R)-2-(5-Chloropyridin-2-yl)-N-(4-(2,6-dimethoxyphenyl)-5-(1-methyl-1H-pyrazol-3-yl)-4H-1,2,4-triazol-3-yl)-2-methoxyethanesulfonamide or (S)-2-(5-chloropyridin-2-yl)-N-(4-(2,6-dimethoxyphenyl)-5-(1-methyl-1H-pyrazol-3-yl)-4H-1,2,4-triazol-3-yl)-2-methoxyethanesulfonamide] | 1.7 nM
COc1cccc(OC)c1-n1c(NS(=O)(=O)[C@@H](C)[C@H](OC)c2ncc(Cl)cn2)nnc1-c1c(C)nc2ccccn12 [Example 428.0, (1R,25)-1-(5-chloropyrimidin-2-yl)-N-(4-(2,6-dimethoxyphenyl)-5-(2-methylimidazo[1,2-a]pyridin-3-yl)-4H-1,2,4-triazol-3-yl)-1-methoxypropane-2-sulfonamide] | 120 nM
COc1cccc(OC)c1-n1c(NS(=O)(=O)[C@H](C)[C@@H](C)c2ncc(C)cn2)nnc1-c1nc(C)cs1 (stereo in doubt) [Example 1.0, (2R,3 S)-N-(4-(2,6-dimethoxyphenyl)-5-(4-methylthiazol-2-yl)-4H-1,2,4-triazol-3-yl)-3-(5-methylpyrimidin-2-yl)butane-2-sulfonamide] | 0.13 nM
COCC1(n2c(NS(=O)(=O)[C@@H](C)[C@H](OC)c3ncc(Cl)cn3)nnc2-c2n[nH]c3c2CCCC3)CC1 [Example 491.0, (1R,2S)-1-(5-chloropyrimidin-2-yl)-1-methoxy-N-(4-(1-(methoxymethyl)cyclopropyl)-5-(4,5,6,7-tetrahydro-1H-indazol-3-yl)-4H-1,2,4-triazol-3-yl)propane-2-sulfonamide] | 15 nM
COc1ccccc1-n1c(NS(=O)(=O)CCc2ccc(F)cc2)nnc1-c1cccs1 [Example 359.0, 2-(4-Fluorophenyl)-N-(4-(2-methoxyphenyl)-5-(thiophen-2-yl)-4H-1,2,4-triazol-3-yl)ethanesulfonamide] | 143 nM
CCn1ccc(-c2nnc(NS(=O)(=O)[C@@H](C)[C@H](C)c3ncc(C)cn3)n2-c2c(OC)cccc2OC)n1 [Example 389.0, (2S,3R)-N-(4-(2,6-Dimethoxyphenyl)-5-(1-ethyl-1H-pyrazol-3-yl)-4H-1,2,4-triazol-3-yl)-3-(5-methylpyrimidin-2-yl)butane-2-sulfonamide] | 0.34 nM
